Measurements reported in paper PMC11488100, “PET imaging of CXCR4 expression using [^18F]AlF-NOTA-QHY-04 for hematologic malignancy and solid tumors” (Theranostics, 2024).
Bridge positions count the residues as written; N and C are the ends. Square brackets hold non-standard residues; d marks the D form. Peptide text beside a SMILES is read from it. * marks the point of attachment. NOTA = O=C(O)CN1CCN(CC(=O)O)CCN(CC(=O)*)CC1; 2Nal = N[C@@H](Cc1ccc2ccccc2c1)C(=O)O; Pen = CC(C)(S)[C@H](N)C(=O)O; 4Amb = NCc1ccc(C(=O)O)cc1; Ahx = NCCCCCC(=O)O

What was measured:
[1] = target: T1, recombinant CXCR4 protein (Homo sapiens, UniProt P61073); test: Biolayer interferometry (BLI) binding assay; details: BLI Octet Red96, biotinylated CXCR4 on SSA biosensors, 30 °C, HBS-P buffer pH 7.4, 0.0313-1 μM, 1:1 binding model, global fit
T1 construct: purchased Novoprotein C16M
T1 sequence (P61073 1-39 limits assumed): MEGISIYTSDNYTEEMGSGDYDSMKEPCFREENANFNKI
Method: The in vitro and in vivo stability of [^18F]AlF-NOTA-QHY-04 were evaluated by radio-HPLC to examine the RCP after different incubation periods. The binding affinity of the unlabeled precursor to CXCR4 was measured using the biolayer interferometry Octet Red96 system (PALL ForteBio, USA). The details are supplied in the supplemental materials. […]
human serum albumin solution were evaluated by radio-HPLC to examine the radiochemical purity after different incubation periods. For the saline study, 200 μL of [18F]AlF-NOTA-QHY-04 (0.74–3.70 MBq) was incubated at 37°C with 800 μL of saline for 1 h, 3 h and 6 h respectively, and then directly evaluated by radio -HPLC. […] Finally, the supernatant was collected and passed through a 0.22 μm membrane filter (Millipore, USA) and analyzed by radio-HPLC. […]
The processed blood supernatants and diluted urine samples were collected and passed through a 0.22 μm membrane filter (Millipore, USA) and analyzed by radio-HPLC. […]
and 1 μM NOTA-QHY-04 sample) was prepared and flowed. […] Prior to fitting, the data were baseline-subtracted and analyzed using a 1:1 binding model and the ForteBio data analysis software. Mean Kd value was determined by applying a global fit to all the data. […]

[2] = [18F]FDG PET/CT imaging in cancer patients; format: in vivo, human
From the text: Potential eligible patients with newly diagnosed tumor were recruited from Shandong Cancer Hospital and institute from November 2022 to December 2023. A total of 55 patients including 8 tumor types were represented in this study (diffuse large B-cell lymphoma (DLBCL), n = 6; SCLC, n = 30; non-small cell lung cancer (NSCLC), n = 4; triple-negative breast cancer (TNBC), n = 3; pancreatic carcinoma, n = 3; glioma, n = 7; hepatocellular carcinoma (HCC), n = 1; and colorectal carcinoma (CRC), n = 1). The [^18F]AlF-NOTA-QHY-04 imaging study in patients was approved by the Institutional Review Board of Shandong Cancer Hospital and Institute (no. SDZLEC2023-256-02), and the patients provided their informed consent before inclusion in this study. In this prospective observational study, [^18F]AlF-NOTA-QHY-04 PET/CT scans should not affect the normal process of routine examinations and treatment as usual. Patients were enrolled according to the following criteria: (1) newly diagnosed cancer patients with visible tumors on conventional imaging; (2) histopathologically confirmed diagnosis; (3) age ≥ 18 years; (4) Eastern Cooperative Oncology Group (ECOG) performance status score of 0-2; (5) no prior cancer-directed therapy; (6) ability to undergo [^18F]AlF-NOTA-QHY-04 PET/CT scanning before treatment initiation. Specifically, regarding histological confirmation, we followed the standard clinical practice guidelines for each type of cancer [21]-[26], and provided detailed descriptions of our approach for obtaining histological evidence in the supplemental materials. All patients included in this study were treatment-naïve at the time of [^18F]AlF-NOTA-QHY-04 PET/CT imaging, to ensure that CXCR4 expression levels were not altered by treatments. PET/CT scans were performed within one week of pathological confirmation and carefully coordinated with the patient's clinical teams to avoid any delays in the initiation of treatment. Seven patients from them also underwent [^18F]FDG PET/CT scan. These patients fasted for at least 6 hours before [^18F]FDG PET/CT imaging. The methods for PET/CT scanning and image analysis were the same as previously reported, and detailed in the supplemental materials.
pathologists following standard diagnostic criteria, including routine H&E staining and
relevant immunohistochemical analyses. Histological confirmation was completed before
patients underwent [18F]AlF-NOTA-QHY-04 PET/CT imaging to ensure an accurate
correlation between imaging findings and tumor characteristics.
All the PET/CT scans in patients were acquired through an integrated in -line PET/CT
system (GEMINI TF Big Bore, Philips Healthcare, USA) at 60 min after intravenous
administration of 4.81 MBq/kg [18F]AlF-NOTA-QHY-04 or [18F]FDG. The
medical information system (Beijing Mozi Healthcare Technology Co., Ltd., Beijing,
China). ROIs were drawn on the transaxial images , and the maximum, mean, and peak
standard uptake value (SUV max, SUVmean, SUVpeak) were calculated automatically and used
for measuring the uptake of [18F]AlF-NOTA-QHY-04 by malignant tissues. In PET imaging
of brain tumors, T/N (tumor-to-normal brain ratio) was calculated according to the ratio of
SUVmax of tumor to SUVmean of the contralateral normal brain tissue. Two experienced
nuclear medicine physicians unaware of the patients’ clinical history analyzed the PET/CT
data first independently and then in consensus . […]
For mIF staining, the FFPE sections were baked for 2 h at 60 °C and then
deparaffinized with xylene and rehydrated through decreasing gradient ethanol. Antigen
retrieval was performed in AR6 buffer (Akoya Biosciences) in a microwave oven for 15

[3] = 10 lesions of DLBCL patient No. 32

SMILES | Kd [1] [µM] | SUVmax [2, 3] | SUVmean [2, 3] | average T/N (tumor-to-normal brain ratio) ([2]; SUVmax of tumor / SUVmean of contralateral normal brain, three PCNS DLBCL and one low-grade glioma patient) | SUVmax ([2]; bone metastasis of NSCLC patient No. 35) | SUVmax ([2]; inguinal lymph node of DLBCL patient No. 32) | SUVmax ([2]; lymph node metastasis of NSCLC patient No. 35) | SUVmax ([2]; primary lesion of NSCLC patient No. 35) | average SUVmax ([2]; three PCNS DLBCL patients and one low-grade glioma patient imaged with both tracers)
C[C@H](NC(=O)[C@H](CCCNC(=N)N)NC(=O)CCCCCNC(=O)c1ccc(CNC(=O)CN2CCN(CC(=O)O)CCN(CC(=O)O)CC2)cc1)C(=O)N[C@@H]1CSSC(C)(C)[C@@H](C(=O)O)NC(=O)[C@H](Cc2c[nH]cn2)NC(=O)[C@H](Cc2ccc3ccccc3c2)NC(=O)[C@H](CCCNC(=N)N)NC1=O [NOTA-QHY-04] ({NOTA-4Amb-Ahx}-RA[dC]R[2Nal]H[Pen]-OH; disulfide 3-7) | 0.0552 ± 0.0113 |  |  |  |  |  |  |  | 
OC[C@H]1OC(O)[C@H]([18F])[C@@H](O)[C@@H]1O (stereo partly shown) [[^18F]FDG] |  | 8.00 ± 4.57 | 4.39 ± 2.36 | 1.70 ± 0.25 | 4.1 | 2.17 | 4.26 | 5.23 | 12.12 ± 2.03
C[C@H](NC(=O)[C@H](CCCNC(=N)N)NC(=O)CCCCCNC(=O)c1ccc(CNC(=O)CN2CCN(CC(=O)O)CCN(CC(=O)O)CC2)cc1)C(=O)N[C@@H]1CSSC(C)(C)[C@@H](C(=O)O)NC(=O)[C@H](Cc2c[nH]cn2)NC(=O)[C@H](Cc2ccc3ccccc3c2)NC(=O)[C@H](CCCNC(=N)N)NC1=O [[^natF]AlF-NOTA-QHY-04] ({NOTA-4Amb-Ahx}-RA[dC]R[2Nal]H[Pen]-OH; disulfide 3-7) | 0.0413 ± 0.0055 |  |  |  |  |  |  |  | 
